The text below walks through data of patent US7595398B2, “N-(5-membered aromatic ring)-amido anti-viral compounds” (SmithKline Beecham Corporation, priority 2005, dated 2009).

As a reminder, the inhibition is the drop in the measured response relative to a control, in per cent.

This assay concerns HCV replicon I389luc-ubi-neo/NS3-3′/ET in ET (Huh-lucubineo-ET) cells; screening for HCV RNA dependent RNA polymerase. In words: Replicon Assay (luciferase, ET cell line Huh-lucubineo-ET). The class given is cell-based. The note with it: Hepatitis C virus; inhibition of replication relative to no compound control; test concentration of 10 μM according to the fitted equation; luciferase 48-72 hours. In short, it runs like this: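 Huh-derived ET cells stably carrying an I389luc-ubi-neo/NS3-3′/ET HCV replicon with a luciferase-ubiquitin-neomycin phosphotransferase fusion and adaptive NS3-5B mutations were cultured in DMEM with 10% fetal calf serum and 250 μg/mL G418. Cells were seeded at 0.5-1.0×10^4 cells/well in 96 well plates and given compound after 24 hrs. Luciferase was read 48-72 hours later with Bright-Glo reagents, and replication inhibition was expressed relative to untreated controls.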
On the technique in general: A replicon is a self-replicating genome or part of one, used to study replication in cells.
With `O=C(NC1CC1)c1ccc(-c2csc(NC(=O)[C@@H]3CCCN3C(=O)Cc3cc(F)cc(F)c3)n2)cc1` [Compound 5315, 1-[2-(3,5-Difluoro-phenyl)-acetyl]-pyrrolidine-2-carboxylic acid [4-(4-cyclopropylcarbamoyl-phenyl)-thiazol-2-yl]-amide], at 10 µM the inhibition was 99.7%.

`Cc1ccc(-c2csc(NC(=O)[C@@H]3CCCN3C(=O)OCc3ccccc3)n2)c(C)c1` [Compound 5021, 2-[4-(2,4-Dimethyl-phenyl)-thiazol-2-ylcarbamoyl]-pyrrolidine-1-carboxylic acid benzyl ester] gave an inhibition at 10 µM of 97%.

In turn, `Nc1cccc(-c2csc(NC(=O)C3CCCN3C(=O)OCc3ccccc3)n2)c1` (stereo not shown) [Compound 5001, 2-[4-(3-Amino-phenyl)-thiazol-2-ylcarbamoyl]-pyrrolidine-1-carboxylic acid benzyl ester] showed an inhibition at 10 µM of 99.6%.

Regarding `CC(C)(CN1CCOCC1)NC(=O)c1ccc(-c2csc(NC(=O)[C@@H]3CCCN3C(=O)OCc3ccccc3)n2)cc1` [Compound 5306, 2-{4-[4-(1,1-Dimethyl-2-morpholin-4-yl-ethylcarbamoyl)-phenyl]-thiazol-2-ylcarbamoyl}-pyrrolidine-1-carboxylic acid benzyl ester], 10 µM produced 100% inhibition.

For the compound `O=C(Nc1cccc(-c2csc(NC(=O)C3CCCN3C(=O)OCc3ccccc3)n2)c1)C1CCCC1` (stereo not shown) [Compound 5026, 2-{4-[3-(Cyclopentanecarbonyl-amino)-phenyl]-thiazol-2-ylcarbamoyl}-pyrrolidine-1-carboxylic acid benzyl ester], the inhibition at 10 µM is 100%.

In turn, `CC(C)(C)OC(=O)N1CCCC(NC(=O)c2ccc(-c3csc(NC(=O)[C@@H]4CCCN4C(=O)OCc4ccccc4)n3)cc2)C1` (stereo in doubt) [Compound 5365, 3-(4-{2-[(1-Benzyloxycarbonyl-pyrrolidine-2-carbonyl)-amino]-thiazol-4-yl}-benzoylamino)-piperidine-1-carboxylic acid tert-butyl ester] returned an inhibition at 10 µM of 99.9%.

In turn, `CC(C)NC(=O)c1ccc(-c2csc(NC(=O)C3CCCN3C(=O)OCc3ccccc3)n2)cc1` (stereo not shown) [Compound 5117, 2-[4-(4-Isopropylcarbamoyl-phenyl)-thiazol-2-ylcarbamoyl]-pyrrolidine-1-carboxylic acid benzyl ester] yielded an inhibition at 10 µM of 99.8%.

As for `N#Cc1ccc(-c2csc(NC(=O)[C@@H]3CCCN3C(=O)OCc3ccccc3)n2)cc1` [Compound 5305, 2-[4-(4-Cyanophenyl)-thiazol-2-ylcarbamoyl]-pyrrolidine-1-carboxylic acid benzyl ester], the inhibition at 10 µM is 76.3%.

With `O=C(NC1CCCCC1)c1ccc(-c2csc(NC(=O)[C@@H]3CCCN3C(=O)OCc3ccccc3)n2)cc1` [Compound 5303, 2-[4-(4-Cyclohexylcarbamoyl-phenyl)-thiazol-2-ylcarbamoyl]-pyrrolidine-1-carboxylic acid benzyl ester], the inhibition at 10 µM stood at 100%.

For the compound `O=C(Nc1nc(-c2cc3ccccc3oc2=O)cs1)[C@@H]1CCCN1C(=O)OCc1ccccc1` [Compound 5007, 2-[4-(2-Oxo-2H-chromen-3-yl)-thiazol-2-ylcarbamoyl]-pyrrolidine-1-carboxylic acid benzyl ester], the inhibition at 10 µM came to 100%.

`O=C(Nc1nc(CSc2nc3ccccc3[nH]2)cs1)[C@@H]1CCCN1C(=O)OCc1ccccc1` [Compound 5064, 2-[4-(1H-Benzoimidazol-2-ylsulfanylmethyl)-thiazol-2-ylcarbamoyl]-pyrrolidine-1-carboxylic acid benzyl ester] showed an inhibition at 10 µM of 18.1%.

`CN(C)c1ccc(-c2csc(NC(=O)C3CCCN3C(=O)OCc3ccccc3)n2)cc1` (stereo not shown) [Compound 5013, 2-[4-(4-Dimethylamino-phenyl)-thiazol-2-ylcarbamoyl]-pyrrolidine-1-carboxylic acid benzyl ester] registered an inhibition at 10 µM of 97%.

`O=C(NC1CCCC1)c1cccc(-c2cnc(NC(=O)[C@@H]3CCCN3C(=O)OCc3ccccc3)s2)c1` [Compound 5363, 2-[5-(3-Cyclopentylcarbamoyl-phenyl)-thiazol-2-ylcarbamoyl]-pyrrolidine-1-carboxylic acid benzyl ester]: 10 µM produced 1.64% inhibition.

`COc1ccc(-c2csc(NC(=O)[C@@H]3CCCN3C(=O)OCc3ccccc3)n2)cc1Br` [Compound 5016, 2-[4-(3-Bromo-4-methoxy-phenyl)-thiazol-2-ylcarbamoyl]-pyrrolidine-1-carboxylic acid benzyl ester] returned an inhibition at 10 µM of 100%.

The compound `O=C(Nc1nc(-c2ccc([N+](=O)[O-])cc2)cs1)[C@@H]1CCCN1C(=O)OCc1ccccc1` [Compound 5041, 2-[4-(4-Nitro-phenyl)-thiazol-2-ylcarbamoyl]-pyrrolidine-1-carboxylic acid benzyl ester] showed an inhibition at 10 µM of 76%.

As for `O=C(NC1CC1)c1ccc(-c2csc(NC(=O)[C@@H]3CCCN3C(=O)Cc3ccc(F)cc3)n2)cc1` [Compound 5323, 1-[2-(4-Fluoro-phenyl)-acetyl]-pyrrolidine-2-carboxylic acid [4-(4-cyclopropylcarbamoyl-phenyl)-thiazol-2-yl]-amide], the inhibition at 10 µM turned out to be 81.5%.

Regarding `Cc1ccc(Cc2cnc(NC(=O)[C@@H]3CCCN3C(=O)OCc3ccccc3)s2)cc1Cl` [Compound 5025, 2-[5-(3-Chloro-4-methyl-benzyl)-thiazol-2-ylcarbamoyl]-pyrrolidine-1-carboxylic acid benzyl ester], the inhibition at 10 µM is 2.86%.

In turn, `O=C(Nc1nc(-c2cccc(NCC3CC3)c2)cs1)[C@@H]1CCCN1C(=O)OCc1ccccc1` [Compound 5335, 2-{4-[3-(Cyclopropylmethyl-amino)-phenyl]-thiazol-2-ylcarbamoyl}-pyrrolidine-1-carboxylic acid benzyl ester] returned an inhibition at 10 µM of 92.5%.

Regarding `CC(=O)Nc1ccc(-c2csc(NC(=O)[C@@H]3CCCN3C(=O)OCc3ccccc3)n2)cc1` [Compound 5048, 2-[4-(4-Acetylamino-phenyl)-thiazol-2-ylcarbamoyl]-pyrrolidine-1-carboxylic acid benzyl ester], 10 µM produced 100% inhibition.

Consider `O=C(Nc1nc(-c2ccc(Cl)c(Cl)c2)cs1)[C@@H]1CCCN1C(=O)OCc1ccccc1` [Compound 5034, 2-[4-(3,4-Dichloro-phenyl)-thiazol-2-ylcarbamoyl]-pyrrolidine-1-carboxylic acid benzyl ester], for which the inhibition at 10 µM was 100%.

Regarding `COc1ccc(-c2csc(NC(=O)[C@@H]3CCCN3C(=O)OCc3ccccc3)n2)cc1OC` [Compound 5054, 2-[4-(3,4-Dimethoxy-phenyl)-thiazol-2-ylcarbamoyl]-pyrrolidine-1-carboxylic acid benzyl ester], at 10 µM the inhibition was 99.3%.

Take `O=C(NC1CC1)c1ccc(-c2csc(NC(=O)[C@@H]3CCCN3C(=O)OCc3ccccc3)n2)nc1` [Compound 5355, 2-[4-(5-Cyclopropylcarbamoyl-pyridin-2-yl)-thiazol-2-ylcarbamoyl]-pyrrolidine-1-carboxylic acid benzyl ester]: the inhibition at 10 µM stood at 99.9%.

In turn, `O=C(Nc1nc(-c2cccnc2)cs1)[C@@H]1CCCN1C(=O)OCc1ccccc1` [Compound 5338, 2-(4-Pyridin-3-yl-thiazol-2-ylcarbamoyl)-pyrrolidine-1-carboxylic acid benzyl ester] had an inhibition at 10 µM of 75.2%.

In turn, `O=C(Nc1cccc(-c2cnc(NC(=O)[C@@H]3CCCN3C(=O)OCc3ccccc3)s2)c1)C1CCCC1` [Compound 5116, 2-{5-[3-(Cyclopentanecarbonyl-amino)-phenyl]-thiazol-2-ylcarbamoyl}-pyrrolidine-1-carboxylic acid benzyl ester] registered an inhibition at 10 µM of 100%.

`O=C(Nc1nc(Sc2nnc(-c3ccccc3)o2)cs1)[C@@H]1CCCN1C(=O)OCc1ccccc1` [Compound 5010, 2-[4-(5-Phenyl-[1,3,4]oxadiazol-2-ylsulfanyl)-thiazol-2-ylcarbamoyl]-pyrrolidine-1-carboxylic acid benzyl ester]: the inhibition at 10 µM worked out at 6.41%.

For the compound `O=C(Nc1nc(C2CCOCC2)cs1)[C@@H]1CCCN1C(=O)OCc1ccccc1` [Compound 5051, 2-[4-(Tetrahydro-pyran-4-yl)-thiazol-2-ylcarbamoyl]-pyrrolidine-1-carboxylic acid benzyl ester], the inhibition at 10 µM stood at 3.42%.

For `O=C(NC1CCNCC1)c1ccc(-c2csc(NC(=O)C3CCCN3C(=O)OCc3ccccc3)n2)cc1` (stereo not shown) [Compound 5356, 2-{4-[4-(Piperidin-4-ylcarbamoyl)-phenyl]-thiazol-2-ylcarbamoyl}-pyrrolidine-1-carboxylic acid benzyl ester], the inhibition at 10 µM was found to be 100%.

The compound `O=C(Nc1nc(-c2ccc(F)c(F)c2)cs1)[C@@H]1CCCN1C(=O)OCc1ccccc1` [Compound 5056, 2-[4-(3,4-Difluoro-phenyl)-thiazol-2-ylcarbamoyl]-pyrrolidine-1-carboxylic acid benzyl ester] had an inhibition at 10 µM of 99.3%.

`O=C(NC1CC1)c1ccc(-c2csc(NC(=O)C3CCCN3C(=O)OCc3ccncc3)n2)cc1` (stereo not shown) [Compound 5384, 2-[4-(4-Cyclopropylcarbamoyl-phenyl)-thiazol-2-ylcarbamoyl]-pyrrolidine-1-carboxylic acid pyridin-4-ylmethyl ester] gave an inhibition at 10 µM of 99.7%.

The compound `O=C(Nc1nc(-c2ccc(NS(=O)(=O)C3CC3)cc2)cs1)[C@@H]1CCCN1C(=O)OCc1ccccc1` [Compound 5329, 2-[4-(4-Cyclopropanesulfonylamino-phenyl)-thiazol-2-ylcarbamoyl]-pyrrolidine-1-carboxylic acid benzyl ester] showed an inhibition at 10 µM of 97%.

With `O=C(Nc1nc(-c2c(F)c(F)c(F)c(F)c2-c2ccccc2)cs1)[C@@H]1CCCN1C(=O)OCc1ccccc1` [Compound 5014, 2-[4-(3,4,5,6-Tetrafluoro-biphenyl-2-yl)-thiazol-2-ylcarbamoyl]-pyrrolidine-1-carboxylic acid benzyl ester], at 10 µM the inhibition was 66.6%.
